Measured values published in patent publication US10772909B2, “System and method for insulin-mimetic of cartilage, bone, or osteochondral repair and piezoelectric composite scaffold” (New Jersey Institute of Technology, priority 2016, dated 2020).
Read-outs that look alike come from different tables or passages of the source.

Key:
[1] = test system: human peripheral blood lymphocytes; conditions: cited from earlier work
aggrecan = experiment: Chondrogenesis culture: gene expression by RT-PCR, aggrecan; type: cell-based, human; conditions: for aggrecan gene expression vs 0 and 1 mM groups: CCM without insulin
Protocol: (§1) Chondrogenesis Culture. Cryopreserved MSCs were thawed and expanded in GM until 70-80% confluent. Cells were trypsininzed and then seeded on 6 mm diameter scaffold disks at 1.76×10^5 cells/cm^2 and cultured for 28 days in GM, chondrogenic induction medium (CCM), or CCM without insulin, according to previously published methods. CCM consisted of DMEM high glucose containing 4 mM L-glutamine (Invitrogen, Grand Island, N.Y., USA), 0.1 μM dexamethasone (Sigma-Aldrich), 0.17 mM ascorbic acid-2-phosphate (Wako Chemicals, Richmond, Va., USA), 1% ITS+(6.25 µg/mL insulin, 6.25 µg/mL transferrin, 6.25 ng/mL selenous acid, 5.35 μg/ml linoleic acid and 1.25 mg of bovine serum albumin) Premix Culture Supplement (Corning, Corning, N.Y., USA), 1× antibiotic-antimycotic, 1 mM sodium pyruvate (Sigma-Aldrich), 0.35 mM proline (Sigma-Aldrich), and 10 ng/mL recombinant human transforming growth factor-beta3 (TGF-β3, ProSpec, Israel). CCM without insulin consisted of CCM where the 1% ITS+Premix Culture Supplement was substituted with 1% stock solution (6.25 μg/ml transferrin and 6.25 ng/ml selenous acid, 5.35 μg/ml lionleic acid (Sigma-Aldrich) and 1.25 mg of bovine serum albumin (Fisher Scientific). Na2WO4 was added to all media leading to final Na2WO4 concentrations of 0, 0.01, 0.1 and 1 mM. Samples were harvested and analyzed for sulfated glycosaminoglycans (sGAG), cell number and gene expression at day 14 and 28 and for collagen type II and immunostaining at day 28.
(§2) Gene expression was evaluated using quantitative reverse transcription (RT)-polymerase chain reaction (PCR) analysis. RT-PCR was performed with RNeasy Micro Kit and SYBR Green RT-PCR Kit (Qiagen; Valencia, Calif., USA) using the MX4000 detection system (Stratagene) according to the manufacturer's protocol. Relative gene expression of SOX-9, aggrecan and collagen type II were determined. Samples (n=4 per group) were harvested and digested using Lysis Buffer. RNA was isolated from the samples using RNeasy Micro Kit (Qiagen) including DNA digestion step (RNase Free DNase Set; Qiagen). The RNA quantity and integrity were determined by measuring the absorbance at 260 nm and the absorbance ratio of 260 nm/280 nm, respectively, using Nanodrop™ Spectrophotometer (Thermo Fisher Scientific). Quantitative PCR analysis was performed using QuantiTect SYBR Green supermix including the QuantiTect Primer Assays. The reverse transcription step ran for 30 minutes at 50° C., 15 minutes at 95° C. of PCR activation followed by forty cycle of amplification consisting of 15 s denaturation at 94° C., 30 s of annealing at 55° C., and 30 s of extension at 72° C. A melting curve analysis of the RT-PCR product was included for each reaction. Samples were analyzed in triplicate and the value of each gene was normalized to the reference gene ribosomal protein, large, P0 (RPLP0) for the same sample (ΔCT). Primers were purchased from Qiagen (Hs_ACAN, QT00001365; Hs_SOX9, QT00001498; Hs_COL2A1, QT00049518; and Hs_RPLP0 QT00075012).

SOX-9 = experiment: Chondrogenesis culture: gene expression by RT-PCR, SOX-9; type: cell-based, human
Protocol: as §1, §2

For `[Na+].[Na+].[O]=[W](=[O])([O-])[O-]` [Na2WO4, sodium tungstate], the immune response ([1]; 0.01 mM) is given as “did not stimulate an immune response”, the immune response ([1]; 0.1 mM) is given as “did not stimulate an immune response” and the toxicity ([1]; 1 mM dose) is given as “significant toxicity occurred”. The “aggrecan gene expression vs 0 and 1 mM groups” value (aggrecan; 0.01 mM Na2WO4, days 14 and 28) was “significantly higher”, the “aggrecan gene expression vs 0 mM” value (aggrecan; 0.01 mM Na2WO4, CCM, day 14, p<0.05) was “lower aggrecan expression” and the “aggrecan gene expression vs 0 and 1 mM groups” value (aggrecan; 0.1 mM Na2WO4, days 14 and 28) was “significantly higher”. The “aggrecan gene expression vs all groups” value (aggrecan; 0.1 mM Na2WO4, CCM, days 14 and 28) was “significantly higher”, the aggrecan gene expression (aggrecan; 1 mM Na2WO4, CCM) was “lowest gene expression” and the “aggrecan gene expression (chondrogenic genes)” value (aggrecan; GM with Na2WO4) was “no significant upregulation of chondrogenic genes”. The “SOX-9 gene expression vs 0 mM” value (SOX-9; 0.01 mM Na2WO4, CCM without insulin, day 14) was “significantly higher”, the “SOX-9 gene expression vs 0 mM” value (SOX-9; 0.01 mM Na2WO4, CCM, day 28, p<0.05) was “significantly higher SOX-9” and the SOX-9 gene expression (SOX-9; 0.1 mM Na2WO4, CCM, day 14, p<0.05) was “highest SOX-9 gene expression”. The “SOX-9 gene expression vs 0 mM” value (SOX-9; 0.1 mM Na2WO4, CCM, day 28, p<0.01) was “significantly higher SOX-9”, the SOX-9 gene expression (SOX-9; 1 mM Na2WO4, CCM) was “lowest gene expression” and the “SOX-9 gene expression (chondrogenic genes)” value (SOX-9; GM with Na2WO4) was “no significant upregulation of chondrogenic genes”.
